Results published in patent US8436004B2, “Bicycloaniline derivative” (MSD K.K., priority 2007, dated 2013).

What was measured:
[1] = system: Human colon cancer cells WiDr; test: Tumor growth inhibitory effect, WiDr subcutaneous xenograft in nude rats; type: in vivo, F344/N Jcl-rnu nude rats
Method: Pharmacological Test 4 (Tumor Growth Inhibitory Effect)
Human colon cancer cells WiDr (obtained from ATCC) were implanted into the subcutaneous area of the back of F344/N Jcl-rnu nude rats. 12 days after the implantation, 5 mg/kg of gemcitabine (Gemzar, from Eli Lily) was intravenously administered to them; and after 24 hours, a test compound suspended in a solvent (0.5% methyl cellulose) was orally administered thereto. This was repeated once a week for 3 weeks. The tumor volume (0.5×major diameter×(minor diameter)^2) was measured on days 0, 3, 6, 10, 13, 17, 20, 24 and 27 (the first gemcitabine administration is on day 0). The relative tumor volume was calculated, based on the tumor volume on day 0, as 1. The tumor growth rate (% T/C) was obtained according to the formulae mentioned below.
In case where the tumor volume change from day 0 in the test compound administration group is more than 0 (>0): % T/C=(tumor volume change in the test compound group on days 3, 6, 10, 13, 17, 20, 24 and 27/tumor volume change in the control group on days 3, 6, 10, 13, 17, 20, 24 and 27)×100. In case where the tumor volume change from day 0 in the test compound administration group is less than 0 (<0): % T/C=(tumor volume change in the test compound group on days 3, 6, 10, 13, 17, 20, 24 and 27/tumor volume […] in the test compound group on day 0)×100.
Gemcitabine was administered on days 0, 7 and 14. The compound of Example 1 was administered on days 1, 8 and 15.

Wee1 kinase = target: T1, Wee1 kinase (Homo sapiens, UniProt P30291); test: Wee1 kinase-inhibitory effect (33P-ATP, Poly(Lys,Tyr) substrate, filter assay); type: biochemical; conditions: 10 μM ATP, 30° C., 30 minutes
T1 construct: made in house; host or cells: Sf9 insect cells (recombinant baculovirus)
T1 sequence (P30291 whole entry): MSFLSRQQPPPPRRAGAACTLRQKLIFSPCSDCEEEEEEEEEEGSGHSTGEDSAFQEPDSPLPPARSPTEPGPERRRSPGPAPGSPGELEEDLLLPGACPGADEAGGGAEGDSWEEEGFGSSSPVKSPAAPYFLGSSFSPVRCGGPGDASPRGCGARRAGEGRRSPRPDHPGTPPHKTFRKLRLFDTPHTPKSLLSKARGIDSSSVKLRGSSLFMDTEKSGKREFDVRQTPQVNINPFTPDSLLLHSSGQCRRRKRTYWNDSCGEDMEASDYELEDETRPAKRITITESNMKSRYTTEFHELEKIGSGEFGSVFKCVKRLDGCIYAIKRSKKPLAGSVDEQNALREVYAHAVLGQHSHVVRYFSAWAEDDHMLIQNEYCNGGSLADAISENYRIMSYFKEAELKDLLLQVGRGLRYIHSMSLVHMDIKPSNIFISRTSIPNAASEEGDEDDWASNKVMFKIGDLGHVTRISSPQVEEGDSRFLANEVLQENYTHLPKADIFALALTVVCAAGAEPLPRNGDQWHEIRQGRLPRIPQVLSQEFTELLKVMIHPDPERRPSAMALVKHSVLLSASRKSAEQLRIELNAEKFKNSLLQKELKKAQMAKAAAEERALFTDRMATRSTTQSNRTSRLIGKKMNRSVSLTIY
From the text: Pharmacological Test 1 (Wee1 Kinase-Inhibitory Effect)
(1) Purification of Wee1 Kinase:
A cDNA of Wee1 kinase with […] (GST) fused at the amino terminal thereof was inserted into a baculovirus expression vector to construct a recombinant baculovirus, with which cells of an insect cell line Sf9 were infected for high expression therein. The infected cells were recovered and solubilized, and then the GST-tagged Wee1 kinase protein was adsorbed by a glutathion column, and eluted from the column with glutathion, and the active fraction was desalted in a desalting column to give a purified enzyme.
(2) Determination of Wee1 Kinase Activity:
In determination of the Wee1 kinase activity, a synthetic peptide, Poly(Lys,Tyr) Hydrobromide (Lys:Tyr (4:1)) bought from Sigma was used as the substrate.
The amount of the reaction liquid was 21.1 μL; and the composition of the reaction buffer was 50 mM Tris-HCl buffer (pH 7.4)/10 mM magnesium chloride/1 mM dithiothreitol. The purified Wee1 kinase, 2.5 μg of the substrate peptide, 10 μM of non-labeled adenosine triphosphate (ATP) and 1 μCi of [γ-^33P]-labeled ATP (2500 Ci/mmol or more) were added to it, and reacted at 30° C. for 30 minutes. Next, 10 μL of 350 mM phosphate buffer was added to the reaction system to stop the reaction. The substrate peptide was adsorbed by a P81 paper filter 96-well plate, then washed a few times with 130 mM phosphate buffer, and its radioactivity was counted with a liquid scintillation counter. The [γ-^33P]-labeled ATP was bought from Amersham Bioscience.
To add the test compound to the reaction system, the compound was diluted with dimethylsulfoxide (DMSO) to prepare a series of dilutions. 1.1 μL of each dilution was added to the reaction system. As a control, 1.1 μL of DMSO was added to the reaction system.

[2] = system: Cdc2 (Cdk1) tyrosine 15-phosphorylation in NCI-H1299 cells; test: Cdc2 (Cdk1) tyrosine 15-phosphorylation-inhibitory effect in camptothecin-treated NCI-H1299 cells (ELISA); type: cell-based; conditions: Homo sapiens; NCI-H1299, camptothecin 200 nM 16 hours, then test compound + nocodazole 8 hours; read-out: Cdc2-Y15 Phosphorylation-Inhibitory Effect (H1299, + camptothecin) (EC50)
From the text: Pharmacological Test 2 (Method of Determining Drug Potency with Cells (Cdc2 (Cdk1) Tyrosine 15-Phosphorylation-Inhibitory Effect))
Fetal bovine serum (FBS) was obtained from Morgate; media RPMI1640 and DMEM were from Invitrogen; camptothecin was from Sigma; gemcitabine was from Nippon Eli Lilly; nocodazole and protease inhibitor cocktail were from Sigma; rabbit anti-Cdc2 antibody and mouse anti-Cdc2 antibody were from Santa Cruz Biotechnology; rabbit anti-tyrosine 15-phosphorylated Cdc2 antibody and horseradish peroxidase-labeled anti-mouse IgG antibody were from Cell Signaling Technology; sure blue reserve TMB peroxidase substrate was from Kirkegaard and Perry Laboratories.
Human non-small cell lung cancer cells (NCI-H1299) and human colon cancer cells (WiDr) were obtained from American Type Culture Collection (ATCC).
In the method of using NCI-H1299 cells, the cells were suspended in a medium of 10% FBS-added RPMI1640, and the cell suspension was applied to a 96-well Nunclondelta-processed plastic plate (bought from Nunc), in an amount of 2000 cells/100 μL/well, in which the cells were incubated overnight in 5% CO2-95% air at 37° C. Camptothecin was dissolved in dimethylsulfoxide (DMSO), and diluted with a medium of 10% FBS-added RPMI1640, and then this was applied to the plate on which the cells had been previously sowed, in an amount of 50 μL/well in such a manner that the final concentration of camptothecin could be 200 nM. Then, the cells were incubated for 16 hours at 37° C. in 5% CO2-95% air. The test compound was stepwise diluted with DMSO, then diluted with 4000 nM nocodazole-containing, 10% FBS-added RPMI1640, and applied to the plate on which the camptothecin-treated cells had been sowed, in an amount of 50 μL/well. The cells were incubated for 8 hours at 37° C. in 5% CO2-95% air, then the culture was removed, and a cytolytic buffer was added to the plate in an amount of 100 μL/well, shaken at 4° C. for 2 hours, then frozen at −80° C., and thawed to give a cell solution. Cdc2 and tyrosine 15-phosphorylated Cdc2 in the cell solution were determined through enzyme-linked immunosorbent assay (ELISA), and the ratio of tyrosine 15-phosphorylated Cdc2 to Cdc2 was calculated to obtain the 50% phosphorylation-inhibitory concentration of the test compound to the cells (EC50, nM). The cytolytic buffer used herein is an aqueous solution containing 20 mM Hepes (pH 7.5), 150 mM sodium chloride, 1 mM disodium ethylenediaminetetraacetate, 0.1% polyoxyethylene (10) octylphenyl ether, 1% protease inhibitor cocktail, 1 mM dithiothreitol, 2 mM sodium orthovanadate, 10 mM sodium fluoride and 10 mM glycerol diphosphate. Cdc2 was determined through ELISA as follows: A rabbit anti-Cdc2 antibody solution, which had been diluted 200-fold with 50 mM carbonate-bicarbonate buffer (pH 9.6), was applied to a 96-well maxisorpimmuno plate (bought from Nunc), in an amount of 50 μL/well, and statically kept overnight at 4° C. so as to fix the antibody on the plate. Next, this was washed three times with phosphate-buffered physiological saline (PBS), and 5% bovine serum albumin-containing PBS (5% BSA/PBS) was added thereto in an amount of 300 μL/well, and statically kept at room temperature for 2 hours, and then again washed three times with PBS. A mouse anti-Cdc2 antibody solution that had been diluted 100-fold with 0.05% polyoxyethylene sorbitan monolaurate and 1% BSA-containing Tris-HCl-buffered physiological saline (1% BSA/TBS-T) was added to it in an amount of 50 μL/well, and the cell solution was added thereto in an amount of 5 μL/well and statically kept overnight at 4° C. Next, this was washed three times with 0.05% polyoxyethylene sorbitan monolaurate and 0.1% BSA-containing Tris-HCl-buffered physiological saline (0.1% BSA/TBS-T), and then a horseradish peroxidase-labeled anti-mouse IgG antibody solution that had been diluted 2000-fold with 1% BSA/TBS-T was added thereto in an amount of 70 μL/well, and statically kept at room temperature for 3 hours. […]

IC50 (Wee1 kinase) | EC50 [2] | Compound | other results
5.1 nM | 45 nM | CN(C)C1CCc2ccc(Nc3ncc4c(=N)n(-c5c(Cl)cccc5Cl)c(=O)[nH]c4n3)cc2C1 (stereo not drawn) [Example 43] | –
8.9 nM | 35 nM | CN1CCc2ccc(Nc3ncc4c(=N)n(-c5c(Cl)cc(F)cc5Cl)c(=O)[nH]c4n3)cc2C1 [Example 18, 3-(2,6-dichloro-4-fluorophenyl)-4-imino-7-{[2-methyl-1,2,3,4-tetrahydroisoquinolin-7-yl]amino}-3,4-dihydropyrimido[4,5-d]pyrimidin-2(1H)-one] | –
6.5 nM | 37 nM | CN(C)C1Cc2ccc(Nc3ncc4c(=N)n(-c5c(Cl)cccc5Cl)c(=O)[nH]c4n3)cc2C1 (stereo not drawn) [Example 39] | –

More lines, now with the values behind:

Compound | IC50 (Wee1 kinase) | EC50 [2] | other results
Nc1ccn([C@@H]2O[C@H](CO)[C@@H](O)C2(F)F)c(=O)n1 [Gemcitabine, gemcitabine] | – | – | % T/C day 3 ([1]; day 3, gemcitabine 5 mg/kg i.v. days 0, 7, 14, Example 1 15 mg/kg oral days 1, 8, 15, n=5): 62%; % T/C day 6 ([1]; day 6, gemcitabine 5 mg/kg i.v. days 0, 7, 14, Example 1 15 mg/kg oral days 1, 8, 15, n=5): 67%; % T/C day 10 ([1]; day 10, gemcitabine 5 mg/kg i.v. days 0, 7, 14, Example 1 15 mg/kg oral days 1, 8, 15, n=5): 66%; % T/C day 13 ([1]; day 13, gemcitabine 5 mg/kg i.v. days 0, 7, 14, Example 1 15 mg/kg oral days 1, 8, 15, n=5): 64%; % T/C day 17 ([1]; day 17, gemcitabine 5 mg/kg i.v. days 0, 7, 14, Example 1 15 mg/kg oral days 1, 8, 15, n=5): 57%; % T/C day 20 ([1]; day 20, gemcitabine 5 mg/kg i.v. days 0, 7, 14, Example 1 15 mg/kg oral days 1, 8, 15, n=5): 49%; % T/C day 24 ([1]; day 24, gemcitabine 5 mg/kg i.v. days 0, 7, 14, Example 1 15 mg/kg oral days 1, 8, 15, n=5): 52%; % T/C day 27 ([1]; day 27, gemcitabine 5 mg/kg i.v. days 0, 7, 14, Example 1 15 mg/kg oral days 1, 8, 15, n=5): 54%; tumor growth rate, result in words ([1]; summary of Table 5): reduced the tumor growth rate
Cc1cccc(Cl)c1-n1c(=O)[nH]c2nc(Nc3ccc4c(c3)CN(C)CC43CC3)ncc2c1=N [Example 14, 3-(2-chloro-6-methylphenyl)-4-imino-7-[(2′-methyl-2′,3′-dihydro-1′H-spiro[cyclopropane-1,4′-isoquinolin]-7′-yl)amino]-3,4-dihydropyrimido[4,5-d]pyrimidin-2(1H)-one] | 10.4 nM | 77 nM | –
CN(C)C1CC(C)(C)c2ccc(Nc3ncc4c(=N)n(-c5c(Cl)cccc5Cl)c(=O)[nH]c4n3)cc21 (stereo not drawn) [Example 10] | 13.1 nM | 61 nM | –
CN(C)C1Cc2ccc(Nc3ncc4c(=N)n(-c5c(Cl)cccc5Cl)c(=O)n(C)c4n3)cc2C1 (stereo not drawn) [Example 9] | 6.6 nM | 24 nM | –
